Measured values from patent US7132505B1, “Polypeptide inhibiting a proton-gated Na+ channel, a nucleic acid coding for such polypeptide and a method of manufacturing an ASIC1a channel blocker” (Centre National de la Recherche Scientifique - CNRS, dated 2006).
No end group written: not given here.

Key:
ASIC1a channel [1] = molecular target: T1, ASIC1a channel (Rattus norvegicus, UniProt P55926); experiment: Amiloride block of ASIC1a channel; type: cell-based; conditions: IC50 10 μM versus 0.9 nM
T1 sequence (P55926 1-526): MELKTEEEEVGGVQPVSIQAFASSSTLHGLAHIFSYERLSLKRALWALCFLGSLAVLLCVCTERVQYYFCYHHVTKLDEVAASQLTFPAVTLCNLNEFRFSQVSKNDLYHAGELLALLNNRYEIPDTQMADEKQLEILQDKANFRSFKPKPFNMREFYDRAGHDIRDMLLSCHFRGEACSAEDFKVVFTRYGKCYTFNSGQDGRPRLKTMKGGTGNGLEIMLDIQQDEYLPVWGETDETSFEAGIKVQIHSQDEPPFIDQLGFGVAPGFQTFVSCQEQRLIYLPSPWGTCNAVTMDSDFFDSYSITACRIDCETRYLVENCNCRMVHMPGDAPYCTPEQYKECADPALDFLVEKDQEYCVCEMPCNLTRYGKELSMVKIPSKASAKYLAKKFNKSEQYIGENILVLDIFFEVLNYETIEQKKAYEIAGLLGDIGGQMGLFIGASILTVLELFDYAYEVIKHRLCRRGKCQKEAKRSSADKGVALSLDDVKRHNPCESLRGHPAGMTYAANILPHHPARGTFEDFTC

ASIC1a channel [2] = molecular target: T1, ASIC1a channel; conditions: read-out: IC50 for block of ASIC1a channel; cited from earlier work
[3] = system: ASIC1a, ASIC1b, ASIC2a, and ASIC3; conditions: cited from earlier work
[4] = molecular target: ASIC1a channel (homomultimer)
[5] = molecular target: ASIC1a channel (homomultimer); remark: listed apart in the source
[6] = molecular target: T2, native PcTX1-sensitive H+-gated channel of rat dorsal root ganglion neurons (suggested by the filing to be a … (rat, UniProt P55926)); experiment: cell-based or functional assay
T2 sequence: T1 sequence (P55926 1-526)

## N=C(N)NC(=O)c1nc(Cl)c(N)nc1N [amiloride]
ASIC1a channel [1]
  affinity for ASIC1a relative to PcTX1 (fold lower): 10^4
ASIC1a channel [2]
  IC50: 10 µM
[3]
  block of transient current generated by ASIC1a, ASIC1b, ASIC2a, and ASIC3: blocks all transient expression of current

## crude Psalmopoeus cambridgei venom (pool or library)
[4]
  ASIC1a current in Xenopus oocytes: 90%

## EDCIPKWKGCVNRHGDCCEGLECWKRRRSFEVCVPKTPKT-OH (disulfide (positions not given here)) [Psalmotoxin 1 (PcTX1)]
[5]
  IC50 of block of the ASIC1a current recorded at pH 6 in Xenopus oocytes: 0.9 nM
[6]
  IC50 of inhibition of the H+-gated current in the PcTX1-sensitive population of DRG neurons: 0.0007 µM
